Laboratory results from patent US11186603B2, “Heparan sulfate glycomimetic compounds and their pharmaceutical and cosmeceutical uses” (VICTORIA LINK LIMITED, priority 2017, dated 2021).
Where “and” joins values, the source holds several entries; their conditions need not be identical. Equal entries are not always repeated. Where two headings read alike, the source gives them in different places.

Key:
[1] = system: human dermal fibroblast cell line, CRL2071; assay: Production of collagen type I (ELISA); type: cell-based
Description: (§1) Cells from the human dermal fibroblast cell line, CRL2071 (passages 12-14), obtained from normal breast skin of a person, were allowed to attach for 6-8 hours before the addition of the test compounds. After 72 h of exposure to the test articles the media was removed, cells counted and the cell-associated fraction extracted. The media and cell-associated fraction were analysed for the concentration of collagen type I using a Chondrex Human type I Collagen Detection Kit ELISA (Cat #6021).
After complete dissolution the solutions were sterile filtered through a […] syringe filter and kept at 4° C. until use. Prior to each experiment dilutions were freshly prepared by diluting to 100 nM, 1 μM or 10 μM in cell-specific media.
(§2) The test compounds, positive controls and no treatment media were added to the flasks (2.5 ml/flask) and cells were incubated for 72 h before removal of the supernatant. After removal of the supernatant, cell monolayers were trypsinsed with 2.5 ml of 0.025% trypsin/[…] in PBS to each flask. After cell detachment (7-10 min), 1 ml of the cell/trypsin mixture was added to a 20 ml counting vial containing 9 ml of normal saline. The cells were quantitated with a Coulter Counter Z2.
(§3) In some treatments cells were found floating. They were collected, counted and subjected to viability testing using 1% trypan blue staining. The remaining 1.5 ml of trypsin/cell mixture was sonicated with a Branson tip-probed sonicator for 1 min, setting 6 before centrifugation at 10,000 rpm for 10 min. The supernatant was removed and used in the collagen ELISA for the quantitation of cell-associated collagen.

[2] = system: human dermal fibroblast cell line, CRL2071; assay: Production of hyaluronan (ELISA); type: cell-based; settings: 72 h; for ng Hyaluronan/1 × 10^6 cells (Mean ± SD): liberated hyaluronan (>6400Da); for Hyaluronan as % of No Treatment Control (Mean ± SD): liberated
Description: as §1, with “hyaluronan” for “collagen type I”, “Hyaluronan” for “Chondrex Human type I Collagen”, “ELISA.” for “ELISA (Cat #6021).”
as §2
as §3, with “hyaluronan” for “collagen”, “hyaluronan.” for “collagen.”

[3] = biological target: T1, cellular tyrosinase, human primary epidermal melanocyte cell line (PCS-200-013) (Homo sapiens, UniProt P14679)
T1 sequence (P14679 19-529): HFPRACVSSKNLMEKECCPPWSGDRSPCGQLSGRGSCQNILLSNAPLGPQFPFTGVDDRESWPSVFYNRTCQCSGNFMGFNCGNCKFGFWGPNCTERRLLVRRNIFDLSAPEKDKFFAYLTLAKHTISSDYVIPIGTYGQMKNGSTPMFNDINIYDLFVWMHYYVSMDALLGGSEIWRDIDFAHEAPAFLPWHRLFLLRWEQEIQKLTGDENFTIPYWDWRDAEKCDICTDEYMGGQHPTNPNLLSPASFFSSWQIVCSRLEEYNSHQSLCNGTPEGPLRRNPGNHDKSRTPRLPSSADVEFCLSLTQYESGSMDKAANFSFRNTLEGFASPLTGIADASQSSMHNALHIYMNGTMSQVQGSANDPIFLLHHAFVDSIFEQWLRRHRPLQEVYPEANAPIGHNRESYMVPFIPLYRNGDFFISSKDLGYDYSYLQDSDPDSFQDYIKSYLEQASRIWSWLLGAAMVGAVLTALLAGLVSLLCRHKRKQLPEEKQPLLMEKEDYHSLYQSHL

[4] = system: testicular hyaluronidase; assay: Inhibition of hyaluronidase (turbidimetric); type: biochemical
Description: The heparanase inhibitors were incubated with testicular hyaluronidase in the presence of hyaluronan and after incubation the amount of hyaluronic acid remaining was quantitated. Hyaluronidase activity was measured according to the method of Tolksdorf [Tolksdorf, S. & McCready, M. H., The turbometric determination of hyaluronidase, The Journal of Laboratory and Clinical Medicine, 1949, 34(1):74-89]. Hyaluronic acid is measured by its ability to form turbidity with an acid albumin solution. […] One unit is based on the change in absorbency (turbidity) at 540 nm of an internal USP standard. All tubes were placed in a boiling water bath for 5 min and then cooled to room temperature. On cooling 9.0 ml of albumin reagent was added and tubes were allowed to stand for 10 min. Readings of absorbance at 540 nm in a Pharmacia Novatec Model II were taken. The A540nm was plotted versus the hyaluronic acid concentration (mg) to form a standard curve.

[5] = cell-associated, 10 μg/ml, 72 h
[6] = cell-associated, 20 ng/ml, 72 h

What does the source list for `C=C[C@@](C)(/C=C/c1ccc(O)cc1)CCC=C(C)C` [Bakuchiol, reference compound]?
Collagen as % of No Treatment Control (Mean ± SD), Cell-associated ([1]; cell-associated, 5 μg/ml, 72 h): 1,085 ± 60%; μg collagen (Mean ± SD), Cell-Associated Collagen Type 1 ([1]; cell-associated, 5 μg/ml, 72 h): 0.28 ± 0.02 µg; Collagen as % of No Treatment Control (Mean ± SD), Cell-associated [1, 5]: 600 ± 348%; μg collagen (Mean ± SD), Cell-Associated Collagen Type 1 [1, 5]: 0.29 ± 0.01 µg; Collagen as % of No Treatment Control (Mean ± SD), Liberated ([1]; 5 μg/ml, 72 h): 43 ± 17%; μg collagen (Mean ± SD), Liberated Collagen Type 1 ([1]; 5 μg/ml, 72 h): 0.02 ± 0.01 µg; Collagen as % of No Treatment Control (Mean ± SD), Liberated ([1]; 10 μg/ml, 72 h): 357 ± 20%; μg collagen (Mean ± SD), Liberated Collagen Type 1 ([1]; 10 μg/ml, 72 h): 0.15 ± 0.01 µg

With `CC1=C(/C=C/C(C)=C/C=C/C(C)=C/CO)C(C)(C)CCC1` [Retinol, reference compound] as the molecule, how does the “ng Hyaluronan/1 × 10^6 cells (Mean ± SD)” value ([2]; 5 μg/ml) read?
The value was 576 ± 0 ng Hyaluronan/1 × 10^6 cells.

And the “Hyaluronan as % of No Treatment Control (Mean ± SD)” value ([2]; 5 μg/ml)?
The value was 1,346 ± 0%.

What does the source list for `O=C(CCCCCCCNC(=O)CCOCC(COCCC(=O)NCCCCCCCC(=O)NCCCCCCOC1OC(COS(=O)(=O)[O-])C(OS(=O)(=O)[O-])C(OS(=O)(=O)[O-])C1OS(=O)(=O)[O-])(COCCC(=O)NCCCCCCCC(=O)NCCCCCCOC1OC(COS(=O)(=O)[O-])C(OS(=O)(=O)[O-])C(OS(=O)(=O)[O-])C1OS(=O)(=O)[O-])COCCC(=O)NCCCCCCCC(=O)NCCCCCCOC1OC(COS(=O)(=O)[O-])C(OS(=O)(=O)[O-])C(OS(=O)(=O)[O-])C1OS(=O)(=O)[O-])NCCCCCCOC1OC(COS(=O)(=O)[O-])C(OS(=O)(=O)[O-])C(OS(=O)(=O)[O-])C1OS(=O)(=O)[O-].[Na+].[Na+].[Na+].[Na+].[Na+].[Na+].[Na+].[Na+].[Na+].[Na+].[Na+].[Na+].[Na+].[Na+].[Na+].[Na+]` (stereo not drawn) [Compound 17d]?
inhibitory effect on tyrosinase activity (in words) [3]: significant inhibitory effect on tyrosinase activity; Tyrosinase inhibition as a % of the "No Treatment" control (Mean ± SD) ([3]; 0.1 µM): 0 ± 0%; Tyrosinase inhibition as a % of the "No Treatment" control (Mean ± SD) ([3]; 1 μM): 0 ± 0%; Tyrosinase inhibition as a % of the "No Treatment" control (Mean ± SD) ([3]; 10 μM): 44 ± 2%; Hyaluronidase inhibition as a % of the "No Treatment" control (Mean ± SD) ([4]; 100 nM): 0 ± 0%; Hyaluronidase inhibition as a % of the "No Treatment" control (Mean ± SD) ([4]; 1 μM): 0 ± 0%; Hyaluronidase inhibition as a % of the "No Treatment" control (Mean ± SD) ([4]; 10 μM): 23 ± 1%; inhibition of testicular hyaluronidase (in words) ([4]; summary of Example 11): effective inhibitors of testicular hyaluronidase; Collagen as % of No Treatment Control (Mean ± SD), Cell-associated [1]: 3,076 ± 803% and 5,116 ± 231%; μg collagen (Mean ± SD), Cell-Associated Collagen Type 1 [1]: 1.32 ± 0.35 µg and 2.20 ± 0.10 µg

For “TGF-β1: Transforming growth Factor β1, Sigma Aldrich, positive control”, which “Collagen as % of No Treatment Control (Mean ± SD), Cell-associated” value [1, 6] is on record?
The value was 719 ± 57%.

And the “μg collagen (Mean ± SD), Cell-Associated Collagen Type 1” value [1, 6]?
Its value is 0.31 ± 0.02 µg.

What about the “Collagen as % of No Treatment Control (Mean ± SD), Liberated” value ([1]; 20 ng/ml, 72 h) of the same molecule?
Its value is 2,852 ± 285%.

And the “μg collagen (Mean ± SD), Liberated Collagen Type 1” value ([1]; 20 ng/ml, 72 h)?
The value was 1.23 ± 0.12 µg.

What about the “ng Hyaluronan/1 × 10^6 cells (Mean ± SD)” value ([2]; 20 ng/ml) of the same molecule?
Its value is 507 ± 68 ng Hyaluronan/1 × 10^6 cells.

And the “Hyaluronan as % of No Treatment Control (Mean ± SD)” value ([2]; 20 ng/ml)?
The value was 1,186 ± 159%.

B1: TGF-β2: Transforming growth Factor β2, Sigma Aldrich, positive control (protein, UniProt P61812 303-414, looked up)
Transforming growth factor …: ALDAAYCFRNVQDNCCLRPLYIDFKRDLGWKWIHEPKGYNANFCAGACPYLWSSDTQHSRVLSLYNTINPEASASPCCVSQDLEPLTILYYIGKTPKIEQLSNMIVKSCKCS
How did the “Collagen as % of No Treatment Control (Mean ± SD), Cell-associated” value [1, 6] turn out when B1 was run?
Its value is 77 ± 9%.

What about the “μg collagen (Mean ± SD), Cell-Associated Collagen Type 1” value [1, 6] of the same molecule?
Its value is 0.03 ± 0.00 µg.

What about the “Collagen as % of No Treatment Control (Mean ± SD), Liberated” value ([1]; 20 ng/ml, 72 h) of the same molecule?
The value was 446 ± 73%.

What about the “μg collagen (Mean ± SD), Liberated Collagen Type 1” value ([1]; 20 ng/ml, 72 h) of the same molecule?
Its value is 0.19 ± 0.03 µg.
